From US10590143B2, “Herbicidally active (alkynyl-phenyl)-substituted cyclic dione compounds and derivatives thereof” (Syngenta Limited, priority 2013, dated 2020)
Read-outs that look alike come from different tables or passages of the source.

What was measured:
Assay in all cases: Biological Example 1 glasshouse assay for herbicidal activity
Assay type in all cases: in vivo
[1] = system: Abutilon theophrasti (ABUTH); details: 312 h, 13 days after application, read-out: percentage phytotoxicity ABUTH
In short: (§1)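 Herbicide was applied as an aqueous acetone spray with 0.5% Tween 20 to potted plants either pre-emergence or post-emergence. Injury relative to undamaged plants was rated visually as a percentage 13 days later.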

[2] = system: Alopecurus myosuroides (ALOMY); details: 312 h, 13 days after application, read-out: percentage phytotoxicity ALOMY
In short: as §1

[3] = system: Amaranthus retroflexus (AMARE); details: Amaranthus retroflexus, 312 h, 13 days after application, read-out: percentage phytotoxicity AMARE
In short: as §1

[4] = system: Echinochloa crus-galli (ECHCG); details: Echinochloa crus-galli, 312 h, 13 days after application, read-out: percentage phytotoxicity ECHCG
In short: as §1

Setaria faberi (SETFA) = details: 312 h, 13 days after application, read-out: percentage phytotoxicity SETFA
In short: as §1

[5] = system: Zea mays (ZEAMX, corn, maize, e.g. volunteer corn); details: Zea mays, 312 h, 13 days after application, read-out: percentage phytotoxicity ZEAMX
In short: as §1

[6] = post-emergence, post-emergence, 8 g/ha

For `CC#Cc1cc(F)c(C2=C(OC(=O)c3ccccc3)C3CCC(C3)C2=O)c(OC)c1` (stereo not drawn) [Compound P5, [3-(2-fluoro-6-methoxy-4-prop-1-ynyl-phenyl)-4-oxo-2-bicyclo[3.2.1]oct-2-enyl]benzoate], the pest or weed control at 8 g/ha [1, 6] was 0%, the pest or weed control at 30 g/ha ([1]; post-emergence, post-emergence) was 10% and the pest or weed control at 250 g/ha ([1]; post-emergence, post-emergence) was 80%. For the same molecule, the pest or weed control at 30 g/ha ([1]; pre-emergence, pre-emergence) was 0%, the pest or weed control at 250 g/ha ([1]; pre-emergence, pre-emergence) was 60% and the pest or weed control at 8 g/ha ([2]; post-emergence, 8 g/ha) was 70%. It also gave a pest or weed control at 30 g/ha ([2]; post-emergence) of 90%, a pest or weed control at 250 g/ha ([2]; post-emergence) of 90% and a pest or weed control at 30 g/ha ([2]; pre-emergence) of 70%. The pest or weed control at 250 g/ha ([2]; pre-emergence) was 100%, the pest or weed control at 8 g/ha [3, 6] was 0% and the pest or weed control at 30 g/ha ([3]; post-emergence, post-emergence) was 0%. The pest or weed control at 250 g/ha ([3]; post-emergence, post-emergence) was 20%, the pest or weed control at 30 g/ha ([3]; pre-emergence, pre-emergence) was 20% and the pest or weed control at 250 g/ha ([3]; pre-emergence, pre-emergence) was 70%. For the same molecule, the pest or weed control at 8 g/ha [4, 6] was 90%, the pest or weed control at 30 g/ha ([4]; post-emergence, post-emergence) was 100% and the pest or weed control at 250 g/ha ([4]; post-emergence, post-emergence) was 100%. The pest or weed control at 30 g/ha ([4]; pre-emergence, pre-emergence) was 80%, the pest or weed control at 250 g/ha ([4]; pre-emergence, pre-emergence) was 100% and the pest or weed control at 8 g/ha (Setaria faberi (SETFA); [6]) was 60%. For the same molecule, the pest or weed control at 30 g/ha (Setaria faberi (SETFA); post-emergence, post-emergence) was 80%, the pest or weed control at 250 g/ha (Setaria faberi (SETFA); post-emergence, post-emergence) was 90% and the pest or weed control at 30 g/ha (Setaria faberi (SETFA); pre-emergence, pre-emergence) was 60%. For the same molecule, the pest or weed control at 250 g/ha (Setaria faberi (SETFA); pre-emergence, pre-emergence) was 80%, the pest or weed control at 8 g/ha [5, 6] was 100% and the pest or weed control at 30 g/ha ([5]; post-emergence, post-emergence) was 100%. It also gave a pest or weed control at 250 g/ha ([5]; post-emergence, post-emergence) of 100%, a pest or weed control at 30 g/ha ([5]; pre-emergence, pre-emergence) of 80% and a pest or weed control at 250 g/ha ([5]; pre-emergence, pre-emergence) of 100%.
